PubChem BioAssay (NCI)
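Growth conditions: 96-well plates. Treatment: test compound, 48 hours, 5 concentrations. Analysis: linear interpolation between bracketing concentrations; unreached endpoints set to highest concentration. At the GI50, growth is halved. At the TGI there is no net growth.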

Key:
Experiment in all cases: NCI anticancer screen, dose series, 48 h
786-0 renal = test system: 786-0 renal
A498 renal = test system: A498 renal
A549 NSCLC = test system: A549 NSCLC
ACHN renal = test system: ACHN renal
BT-549 breast = test system: BT-549 breast
CAKI-1 renal = test system: CAKI-1 renal
CCRF-CEM leukemia = test system: CCRF-CEM leukemia
COLO 205 colon = test system: COLO 205 colon
DU-145 prostate = test system: DU-145 prostate
EKVX NSCLC = test system: EKVX NSCLC
HCC-2998 colon = test system: HCC-2998 colon
HCT-116 colon = test system: HCT-116 colon
HCT-15 colon = test system: HCT-15 colon
HL-60(TB) leukemia = test system: HL-60(TB) leukemia
HOP-62 NSCLC = test system: HOP-62 NSCLC
HOP-92 NSCLC = test system: HOP-92 NSCLC
HS 578T breast = test system: HS 578T breast
HT29 colon = test system: HT29 colon
IGROV1 ovarian = test system: IGROV1 ovarian
K-562 leukemia = test system: K-562 leukemia
KM12 colon = test system: KM12 colon
LOX IMVI melanoma = test system: LOX IMVI melanoma
M14 melanoma = test system: M14 melanoma
MALME-3M melanoma = test system: MALME-3M melanoma
MCF7 breast = test system: MCF7 breast
MDA-MB-231 breast = test system: MDA-MB-231 breast
MDA-MB-435 = test system: MDA-MB-435
MOLT-4 leukemia = test system: MOLT-4 leukemia
NCI-H226 lung = test system: NCI-H226 lung
NCI-H23 lung = test system: NCI-H23 lung
NCI-H460 lung = test system: NCI-H460 lung
NCI-H522 lung = test system: NCI-H522 lung
NCI/ADR-RES ovarian = test system: NCI/ADR-RES ovarian
OVCAR-3 ovarian = test system: OVCAR-3 ovarian
OVCAR-4 ovarian = test system: OVCAR-4 ovarian
OVCAR-5 ovarian = test system: OVCAR-5 ovarian
OVCAR-8 ovarian = test system: OVCAR-8 ovarian
PC-3 prostate = test system: PC-3 prostate
RPMI-8226 leukemia = test system: RPMI-8226 leukemia
RXF 393 renal = test system: RXF 393 renal
SF-268 CNS = test system: SF-268 CNS
SF-295 CNS = test system: SF-295 CNS
SF-539 CNS = test system: SF-539 CNS
SK-MEL-2 melanoma = test system: SK-MEL-2 melanoma
SK-MEL-28 melanoma = test system: SK-MEL-28 melanoma
SK-MEL-5 melanoma = test system: SK-MEL-5 melanoma
SK-OV-3 ovarian = test system: SK-OV-3 ovarian
SN12C renal = test system: SN12C renal
SNB-19 CNS = test system: SNB-19 CNS
SNB-75 CNS = test system: SNB-75 CNS
SR leukemia = test system: SR leukemia
SW-620 colon = test system: SW-620 colon
T-47D breast = test system: T-47D breast
TK-10 renal = test system: TK-10 renal
U251 CNS = test system: U251 CNS
UACC-257 melanoma = test system: UACC-257 melanoma
UACC-62 melanoma = test system: UACC-62 melanoma
UO-31 renal = test system: UO-31 renal

SMILES: Cc1nc2cnc(N)c(C#Cc3cncc(C(=O)Nc4ccc(Cl)c(C(F)(F)F)c4)c3)c2nc1C
- GI50 (786-0 renal): 3.41 µM
- TGI (786-0 renal): 17.9 µM
- GI50 (A498 renal): 3.1 µM
- TGI (A498 renal): 15.4 µM
- GI50 (A549 NSCLC): 3.27 µM
- TGI (A549 NSCLC): 22.6 µM
- GI50 (ACHN renal): 1.89 µM
- TGI (ACHN renal): 12.1 µM
- GI50 (BT-549 breast): 1.99 µM
- TGI (BT-549 breast): 6.64 µM
- GI50 (CAKI-1 renal): 2.26 µM
- TGI (CAKI-1 renal): 15.6 µM
- GI50 (CCRF-CEM leukemia): 3.75 µM
- TGI (CCRF-CEM leukemia): 52.8 µM
- GI50 (COLO 205 colon): 0.442 µM
- TGI (COLO 205 colon): 9.17 µM
- GI50 (DU-145 prostate): 2.93 µM
- TGI (DU-145 prostate): 13.3 µM
- GI50 (EKVX NSCLC): 2.48 µM
- TGI (EKVX NSCLC): 19.1 µM
- GI50 (HCC-2998 colon): 0.771 µM
- TGI (HCC-2998 colon): 4.35 µM
- GI50 (HCT-116 colon): 0.249 µM
- TGI (HCT-116 colon): 2.11 µM
- GI50 (HCT-15 colon): 1.55 µM
- TGI (HCT-15 colon): 4.03 µM
- GI50 (HL-60(TB) leukemia): 0.0754 µM
- TGI (HL-60(TB) leukemia): 4.12 µM
- GI50 (HOP-62 NSCLC): 1.87 µM
- TGI (HOP-62 NSCLC): 18.7 µM
- GI50 (HOP-92 NSCLC): 0.196 µM
- TGI (HOP-92 NSCLC): 1.78 µM
- GI50 (HS 578T breast): 1.64 µM
- TGI (HS 578T breast): 7.19 µM
- GI50 (HT29 colon): 0.346 µM
- TGI (HT29 colon): 2.11 µM
- GI50 (IGROV1 ovarian): 0.653 µM
- TGI (IGROV1 ovarian): 12.6 µM
- GI50 (K-562 leukemia): 0.168 µM
- TGI (K-562 leukemia): > 100 µM
- TGI (KM12 colon): 3.53 µM
- GI50 (LOX IMVI melanoma): 0.257 µM
- TGI (LOX IMVI melanoma): 1.43 µM
- GI50 (M14 melanoma): 0.243 µM
- TGI (M14 melanoma): 1.85 µM
- GI50 (MALME-3M melanoma): 0.118 µM
- TGI (MALME-3M melanoma): 0.825 µM
- GI50 (MCF7 breast): 1.91 µM
- TGI (MCF7 breast): 6.84 µM
- GI50 (MDA-MB-231 breast): 0.308 µM
- TGI (MDA-MB-231 breast): 5.09 µM
- GI50 (MDA-MB-435): 0.442 µM
- TGI (MDA-MB-435): 4.06 µM
- GI50 (MOLT-4 leukemia): 1.68 µM
- TGI (MOLT-4 leukemia): 5.82 µM
- GI50 (NCI-H226 lung): 0.555 µM
- TGI (NCI-H226 lung): 9.79 µM
- GI50 (NCI-H23 lung): 0.579 µM
- TGI (NCI-H23 lung): 5.4 µM
- GI50 (NCI-H460 lung): 2.3 µM
- TGI (NCI-H460 lung): 10.2 µM
- GI50 (NCI-H522 lung): 1.8 µM
- TGI (NCI-H522 lung): 14.8 µM
- GI50 (NCI/ADR-RES ovarian): 2.95 µM
- TGI (NCI/ADR-RES ovarian): 19.1 µM
- GI50 (OVCAR-3 ovarian): 3.33 µM
- TGI (OVCAR-3 ovarian): 12.7 µM
- GI50 (OVCAR-4 ovarian): 4.01 µM
- TGI (OVCAR-4 ovarian): 17 µM
- GI50 (OVCAR-5 ovarian): 0.383 µM
- TGI (OVCAR-5 ovarian): 11.3 µM
- GI50 (OVCAR-8 ovarian): 4.45 µM
- TGI (OVCAR-8 ovarian): 24.5 µM
- GI50 (PC-3 prostate): 3.9 µM
- TGI (PC-3 prostate): 18.7 µM
- GI50 (RPMI-8226 leukemia): 3.32 µM
- TGI (RPMI-8226 leukemia): 22.5 µM
- GI50 (RXF 393 renal): 0.799 µM
- TGI (RXF 393 renal): 4.23 µM
- GI50 (SF-268 CNS): 2.46 µM
- TGI (SF-268 CNS): 15.6 µM
- GI50 (SF-295 CNS): 3.44 µM
- TGI (SF-295 CNS): 18.8 µM
- GI50 (SF-539 CNS): 0.518 µM
- TGI (SF-539 CNS): 10.2 µM
- GI50 (SK-MEL-2 melanoma): 0.328 µM
- TGI (SK-MEL-2 melanoma): 1.89 µM
- GI50 (SK-MEL-28 melanoma): 0.264 µM
- TGI (SK-MEL-28 melanoma): 1.68 µM
- GI50 (SK-MEL-5 melanoma): 1.08 µM
- TGI (SK-MEL-5 melanoma): 11.1 µM
- GI50 (SK-OV-3 ovarian): 9.11 µM
- TGI (SK-OV-3 ovarian): 23.3 µM
- GI50 (SN12C renal): 1.16 µM
- TGI (SN12C renal): 4 µM
- GI50 (SNB-19 CNS): 6.53 µM
- TGI (SNB-19 CNS): 20.7 µM
- GI50 (SNB-75 CNS): 2.43 µM
- TGI (SNB-75 CNS): 11.8 µM
- GI50 (SR leukemia): 1.71 µM
- TGI (SR leukemia): 5.02 µM
- GI50 (SW-620 colon): 0.891 µM
- TGI (SW-620 colon): 11.2 µM
- GI50 (T-47D breast): 5.02 µM
- TGI (T-47D breast): 27.6 µM
- GI50 (TK-10 renal): 5.32 µM
- TGI (TK-10 renal): 18.9 µM
- GI50 (U251 CNS): 2.88 µM
- TGI (U251 CNS): 16.9 µM
- GI50 (UACC-257 melanoma): 0.519 µM
- TGI (UACC-257 melanoma): 9.65 µM
- GI50 (UACC-62 melanoma): 0.264 µM
- TGI (UACC-62 melanoma): 2.15 µM
- GI50 (UO-31 renal): 0.381 µM
- TGI (UO-31 renal): 10.9 µM
